This note sets out measurements from patent publication US20080085886A1, “Aza-benzofuranyl compounds and methods of use” (GENENTECH, INC., priority 2006, published 2008).

The assay has as its system cellular p-ERK in HCT116 human colorectal carcinoma / A375 human malignant melanoma cell lines. The assay is described as follows: Phospho-ERK cell-based assay (ELISA), Example 4. The conditions noted are these: in either one of the cell lines (HCT116, A375), 2 h or 24 h exposure. As for the experimental part: Example 4 Phospho-ERK Cell-Based Assay
Compounds are tested in a cell-based phospho-ERK ELISA using the following cell lines:
HCT116 human colorectal carcinoma (ATCC)
A375 human malignant melanoma (ATCC)
Both cell lines are maintained in DMEM/F12 (1:1) media (Gibco) supplemented with 10% FCS at 37° C. in a 5% CO2 humidified incubator.
Cells are seeded in 96-well plates at 2,000 cells/well and after 24 h they are exposed to different concentrations of compounds in 0.83% DMSO. Cells are grown for a further 2 h or 24 h, fixed with formaldehyde (2% final) and permeabilised with methanol. Following blocking with TBST-3% BSA, fixed cells are incubated with primary antibody (anti-phospho ERK from rabbit) over-night at 4° C. Cells are incubated with Propidium Iodide (DNA fluorescent dye) and detection of cellular p-ERK is performed using an anti-rabbit secondary antibody conjugated to the fluorescent Alexa Fluor 488 dye (Molecular probes). The fluorescence is analysed using the Acumen Explorer (TTP Labtech), a laser-scanning microplate cytometer, and the Alexa Fluor 488 signal is normalised to the PI signal (proportional to cell number).
The EC50 is defined as the concentration at which a given compound achieves a signal half way between the baseline and the maximum response. EC50 values are calculated using the XLfit software package (version 2.0.5).
As for `CN(OCCO)C(=O)c1oc2ccncc2c1Nc1ccc(I)cc1F` [Example 23, 3-(2-Fluoro-4-iodo-phenylamino)-furo[3,2-c]pyridine-2-carboxylic acid (2-hydroxy-ethoxyl)-methyl-amide], the EC50 was less than 10 µM.

`O=C(NOCCO)c1oc2ccncc2c1Nc1ccc(Br)cc1Cl` [Example 26, 3-(4-Bromo-2-chloro-phenylamino)-furo[3,2-c]pyridine-2-carboxylic acid (2-hydroxy-ethoxy)-amide] registered an EC50 of less than 10 µM. As for `CONC(=O)c1oc2ccncc2c1Nc1ccc(I)cc1F` [Example 29, 3-(2-Fluoro-4-iodo-phenylamino)-furo[3,2-c]pyridine-2-carboxylic acid methoxy-amide], the EC50 was less than 10 µM.

`CC(C)CONC(=O)c1oc2ccncc2c1Nc1ccc(I)cc1F` [Example 42, (2-Fluoro-4-iodo-phenylamino)-N-isobutoxyfuro[3,2-c]pyridine-2-carboxamide] yielded an EC50 of less than 10 µM. The figure for `CC(C)ONC(=O)c1oc2ccncc2c1Nc1ccc(I)cc1F` [Example 43, (2-Fluoro-4-iodo-phenylamino)-N-isopropoxyfuro[3,2-c]pyridine-2-carboxamide] is less than 10 µM; for `O=C(NOCc1ccccc1)c1oc2ccncc2c1Nc1ccc(I)cc1F` [Example 44, (2-Fluoro-4-iodo-phenylamino)-N-benzyloxyfuro[3,2-c]pyridine-2-carboxamide] it is less than 10 µM; for `O=C(NOCCCO)c1oc2ccncc2c1Nc1ccc(I)cc1F` [Example 45, (2-Fluoro-4-iodo-phenyl amino)-N-(3-hydroxypropoxy)furo[3,2-c]pyridine-2-carboxamide] it is less than 10 µM. The figure for `O=C(NCCCONC(=O)c1oc2ccncc2c1Nc1ccc(I)cc1F)c1ccccn1` [Example 46] is less than 10 µM; for `O=C(NCCCONC(=O)c1oc2ccncc2c1Nc1ccc(I)cc1F)c1cccnc1` [Example 47] it is less than 10 µM; for `O=C(NCCCONC(=O)c1oc2ccncc2c1Nc1ccc(I)cc1F)c1ccncc1` [Example 48, (2-Fluoro-4-iodo-phenyl amino)-N-[3-(isonicotinamide)propoxy] furo[3,2-c]pyridine-2-carboxamide] it is less than 10 µM. The figure for `CCONC(=O)c1oc2ccncc2c1Nc1ccc(I)cc1F` [Example 50, (2-Fluoro-4-iodo-phenyl amino)-N-ethoxyfuro[3,2-c]pyridine-2-carboxamide] is less than 10 µM; for `CC(O)CONC(=O)c1oc2ccncc2c1Nc1ccc(I)cc1F` (centres unmarked) [Example 55, 3-(2-Fluoro-4-iodo-phenylamino)-furo[3,2-c]pyridine-2-carboxylic acid (2-hydroxy-propoxy)-amide] it is less than 10 µM; for `O=C(c1oc2ccncc2c1Nc1ccc(I)cc1F)N1CC[C@@H](O)C1` [Example 59, (3-(2-fluoro-4-iodophenyl amino)furo[3,2-c]pyridin-2-yl)((R)-3-hydroxypyrrolidin-1-yl)methanone] it is less than 10 µM. Molecule `O=C(c1oc2ccncc2c1Nc1ccc(I)cc1F)N1C[C@H](O)[C@@H](O)C1` [Example 60, (3-(2-fluoro-4-iodophenyl amino)furo[3,2-c]pyridin-2-yl)((3S,4S)-3,4-dihydroxypyrrolidin-1-yl)methanone] had an EC50 of less than 10 µM.

Regarding `O=C(NCCCO)c1oc2ccncc2c1Nc1ccc(I)cc1F` [Example 61, 3-(2-fluoro-4-iodophenylamino)-N-(3-hydroxypropyl)furo[3,2-c]pyridine-2-carboxamide], the EC50 was less than 10 µM. `O=C(NC(CO)CO)c1oc2ccncc2c1Nc1ccc(I)cc1F` [Example 68, 3-(2-fluoro-4-iodophenylamino)-N-(1,3-dihydroxypropan-2-yl)furo[3,2-c]pyridine-2-carboxamide] showed an EC50 of less than 10 µM. Molecule `O=C(c1oc2ccncc2c1Nc1ccc(I)cc1F)N1CC[C@H](O)C1` [Example 70, (3-(2-fluoro-4-iodophenylamino)furo[3,2-c]pyridin-2-yl)((S)-3-hydroxypyrrolidin-1-yl)methanone] displayed an EC50 of less than 10 µM.
